Columns and labels:
Bcl-2-like protein 1 = Bcl-2-like protein 1 (Homo sapiens, UniProt Q07817); experiment: (§1) BCL-XL TR-FRET Assay: The following assay concentrations and times were used: 10.5 ng BCL-XL, 5 μl of 1:100 anti-His Tb-labeled donor, 5 μl of 1:100 Dye-labeled acceptor, 5 μl of 1:80 BCL-XL Peptide Ligand, and 2 μl of test compound, with 60 min incubation time. The results of the assay were read using a Clariostar (BMG Labtech) plate reader with the following parameters: TR FRET, 340ex/620 and 665em; 60 μsec Delay; and 500 μsec integration.
[1] = biological target: Apoptosis regulator Bcl-2 (Homo sapiens, UniProt P10415); experiment: as §1, with “BCL-2 TR-FRET” for “BCL-XL TR-FRET”, “used: 3” for “used: 10.5”, “ng BCL-2,” for “ng BCL-XL,”, “of 1:40 BCL-2” for “of 1:80 BCL-XL”, “2 ul” for “2 μl”
Apoptosis regulator Bcl-2, sequence (P10415 whole entry): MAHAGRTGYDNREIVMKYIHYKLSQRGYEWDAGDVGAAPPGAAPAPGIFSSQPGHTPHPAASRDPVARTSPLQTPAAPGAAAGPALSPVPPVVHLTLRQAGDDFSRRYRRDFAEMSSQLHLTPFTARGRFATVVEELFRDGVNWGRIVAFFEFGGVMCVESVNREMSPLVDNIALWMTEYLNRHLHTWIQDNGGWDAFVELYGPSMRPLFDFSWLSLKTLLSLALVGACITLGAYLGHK

Bcl-2-like protein 1, sequence (Q07817 whole entry): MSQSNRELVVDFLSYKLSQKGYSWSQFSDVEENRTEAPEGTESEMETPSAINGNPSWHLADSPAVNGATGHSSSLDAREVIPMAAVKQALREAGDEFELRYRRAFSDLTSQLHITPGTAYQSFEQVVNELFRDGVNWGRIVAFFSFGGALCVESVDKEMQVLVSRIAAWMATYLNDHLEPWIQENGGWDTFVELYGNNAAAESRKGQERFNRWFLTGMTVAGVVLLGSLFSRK

For `O=C(c1cc(-c2cc3c(cc2C(=O)N2Cc4ccccc4C[C@H]2CN2CCOCC2)OCO3)n2c1CCCC2)N(Cc1ccccc1F)c1ccc(O)cc1`, which IC50 (Bcl-2-like protein 1) is on record?
The IC50 was under 2000 nM.

And the IC50 [1]?
The IC50 was under 5 nM.

`O=C(c1cc(-c2cc3c(cc2C(=O)N2Cc4ccccc4C[C@H]2CN2CCOCC2)OCO3)n2c1CCCC2)N(Cc1ccc(F)cc1)c1ccc(O)cc1` was tested. Which IC50 (Bcl-2-like protein 1) did it give?
The IC50 was over 4000 nM.

Reference: ChEMBL document CHEMBL5729797, “Compounds having tetrahydroindolizine-1-carboxamide as BCL-2 inhibitors” (2023)
